Values of other authors, collected in PMC9729727, “The effect of food on the pharmacokinetics of WXFL10203614, a potential selective JAK1 inhibitor, in healthy Chinese subjects” (Frontiers in Pharmacology, 2022).
Like-named read-outs stand apart in the source and are kept apart here.

Settings: for Effect of food on AUC / Effect of food on Cmax: ref Shi et al., 2011, Mohamed et al., Anderson et al.; for Effect of the fed state on Cmax: ref Lamba et al., 2016, Shibata et al., 2021
[1] = 3 mg immediate-release capsules, high-fat meal vs fasted, ref Mohamed et al., 2017

Effect of food on AUC (2017, 2019)	Effect of food on Cmax (2017, 2019)	Effect of the fed state on Cmax	Structure (SMILES)	further results
little effect	partly reduced		N#CC[C@H](C1CCCC1)n1cc(-c2ncnc3[nH]ccc23)cn1 [INCB018424]	
little effect	partly reduced		O=C(Nc1nc2cccc(-c3ccc(CN4CCS(=O)(=O)CC4)cc3)n2n1)C1CC1 [filgotinib]	Effect of meals on systemic exposure (high- and low-fat meals, ref Anderson et al., 2019): little effect; Decrease of Cmax by meal (high-fat meal, ref Anderson et al., 2019): 20%; Decrease of Cmax by meal (low-fat meal, ref Anderson et al., 2019): 11%
		elevated	NC(=O)c1cnc2[nH]ccc2c1N[C@@H]1[C@@H]2CC3C[C@H]1C[C@@](O)(C3)C2 [peficitinib]	
		elevated	C[C@@H]1CCN(C(=O)CC#N)C[C@@H]1N(C)c1ncnc2[nH]ccc12 [tofacitinib]	
little effect	partly reduced		CC[C@@H]1CN(C(=O)NCC(F)(F)F)C[C@@H]1c1cnc2cnc3[nH]ccc3n12 [upadacitinib]	Decrease of Cmax after a high-fat meal [1]: 23%; Effect of a high-fat meal on AUC [1]: not impacted
